Entries after “also recorded” stand apart in the source; their conditions may differ.
T1: GST-tagged domains of IRS1 (Rattus norvegicus, UniProt P35570)
T1 construct: GST-tagged IRS1 domains (N: aa 2-516, M: aa 526-859 and C: 900-1235); made in house
T1 sequence (P35570 2-516): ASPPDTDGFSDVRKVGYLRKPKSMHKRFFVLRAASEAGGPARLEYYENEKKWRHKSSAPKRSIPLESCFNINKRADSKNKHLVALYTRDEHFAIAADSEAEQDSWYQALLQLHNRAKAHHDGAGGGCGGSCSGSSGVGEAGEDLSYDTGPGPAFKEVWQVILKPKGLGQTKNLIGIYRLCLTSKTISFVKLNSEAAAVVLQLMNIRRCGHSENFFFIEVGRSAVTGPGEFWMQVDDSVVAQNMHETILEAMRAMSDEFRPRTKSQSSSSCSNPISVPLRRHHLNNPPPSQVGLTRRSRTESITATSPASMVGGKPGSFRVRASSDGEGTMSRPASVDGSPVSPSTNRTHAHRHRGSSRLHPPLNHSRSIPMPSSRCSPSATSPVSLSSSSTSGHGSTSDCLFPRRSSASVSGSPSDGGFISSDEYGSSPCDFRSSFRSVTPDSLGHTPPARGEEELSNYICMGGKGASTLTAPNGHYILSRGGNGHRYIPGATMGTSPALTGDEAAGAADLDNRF


Columns and labels:
[1] = system: L6 myotubes; assay: Fluorometric 2-deoxyglucose uptake assay after insulin stimulation; format: cell-based, rat
Method: (§1) Transfection was carried out with GeneJuice (Novagen) for DNA plasmids or Oligofectamine (Invitrogen) for siRNA oligos according to manufacturer's protocols. Silencer negative Control scrambled (Scr) siRNA used as control was purchased from Ambion and the previously validated (Enomoto et al., 2005) GIV siRNA sequence used was custom-ordered from Dharmacon. For TAT-construct transduction, cells were incubated with 300-800 nM of the TAT-proteins for 30 min at 37° C. prior to three washes with PBS and addition of fresh growth media. For assays involving insulin (Novagen) stimulation of TAT-treated cells, such stimulation was carried out 90 min after transduction.
(§2) Unless otherwise indicated, serum starvation of cells for use in experiments involving insulin stimulation was carried out by growing cells overnight in the presence of no serum (i.e., 0% FBS) in the case of Cos7 and L6 cells, or in the presence of 0.2% FBS in the case of HeLa cells. To induce IR, cells were pre-treated with Sodium Palmitate (PA; Sigma-Aldrich) (0.5 mM, stock solution at 5 mM/5% FFA-free BSA in ethanol) or vehicle control (5% FFA-free BSA in ethanol) for 16 h. To reverse IR with TZDs, cells were treated with 50 μM Pioglitazone (Pio) (Sigma-Aldrich) or DMSO (vehicle control) for 18 h prior to stimulation with 100 nM insulin. Treatment with PKCθ pseudo-substrate inhibitor (Santa Cruz Biotechnologies) was performed at 10 μM for 16 h.
Glucose uptake assays were performed without the use of radioisotopes as described previously (Yamamoto et al., 2006). HeLa and L6 cells grown in 6-well plates were stimulated with insulin in KRH Buffer [50 mM HEPES, 137 mM NaCl, 4.7 mM KCl, 1.85 mM CaCl2, 1.3 mM MgSO4, and 0.1% (w/v) BSA-FFA free, pH 7.4]. Cells were incubated with 1 mM 2-deoxyglucose (2-DG) for 20 min, washed, and subsequently lysed with 0.1 N NaOH. The lysates were transferred into eppendorf tubes and samples were incubated in a water bath maintained at 80° C. for 45 min to degrade endogenous NAD(P)H and NAD(P)^+. An equal volume each of 0.1 N HCl and Triethanolamine (200 mM TEA, pH 8.1) buffer were added to each tube. Samples were subsequently mixed with assay solution [50 mM TEA, 0.02% BSA-FFA free, 10 μM NAD(P)^+, 0.2 U/ml Diaphorase, 6 nM Resazurin sodium, 15 U/ml G6PDH (Santa Cruz Biotechnologies)] and incubated at 37° C. for 90 min. Fluorescence intensity (λex=550 nM, λem=590 nM) was determined using a Tecan Inifinite M1000 PRO and normalized to total protein, as determined using BCA assay (Thermo Scientific).

[2] = system: GIV, IRS1 and Akt phosphorylation; assay: Metabolic insulin signaling in L6 cells by immunoblotting; format: cell-based, rat
Method: as §1, §2
Protein samples for immunoblotting were run on SDS/PAGE gels and transferred onto PVDF membranes (Millipore). Membranes were blocked with PBS containing 5% non-fat milk (or with 5% BSA when probing for phosphorylated proteins) before incubation with primary antibodies. GIV was detected using rabbit anti-GIV coiled-coil (Millipore) (1:500); GIV-CT (Santa Cruz Biotechnologies) (1:500); phospho-Tyr1764-GIV (1:500) and phospho-Ser1689-GIV (21st Century Biochemicals) (1:250) antibodies. Other antibodies used in this work include rabbit polyclonal antibodies against Gαi3 (1:333), pan-GP (1:250) and phospho-IRS1 (1:500) from Santa Cruz Biotechnologies; and phospho-Akt (1:250); total Akt (1:250); phospho-ERK (1:250); phospho-AS160 (1:250); total InsRβ (1:500) and total IRS1 (1:500) from Cell signaling. Mouse monoclonal Abs against phospho-InsRβ (1:250), His (1:1000), β-tubulin (1:1000), GFP (1:500) from Santa Cruz Biotechnologies, and control IgG (Bio-Rad Laboratories) were commercially obtained. Goat anti-rabbit and goat anti-mouse Alexa Fluor 680 or IRDye 800 F(ab′)2 secondary antibodies were purchased from Li-Cor Biosciences. Images were processed with ImageJ software (NIH) and assembled as figure panels using Photoshop and Illustrator software (Adobe).

[3] = system: GIV binding to GST-Gαi3 [preloaded with GDP]; assay: GST-Gαi3 pulldown of GIV from lysates of PA-treated L6 myoblasts; details: L6 treated with PA 0.5 mM, 16 h
Method: (§3) Purified GST-Gαi3, GST-tagged IRS1 domains or GST alone were immobilized on glutathione-Sepharose beads (GE Healthcare) for 1 h at room temperature as described before (Garcia-Marcos et al., 2012; Ghosh et al., 2010; Ghosh et al., 2008; Lin et al., 2011). L6 lysates or His-GIV CT protein were added to each tube, and binding reactions were carried out for 4 h at 4° C. with constant tumbling in binding buffer [50 mM Tris-HCl (pH 7.4), 100 mM NaCl, 0.4% (v:v) Nonidet P-40, 10 mM MgCl2, 5 mM EDTA, 2 mM DTT, protease inhibitor mixture]. Beads were washed (4×) with 1 mL of wash buffer [4.3 mM Na2HPO4, 1.4 mM KH2PO4 (pH 7.4), 137 mM NaCl, 2.7 mM KCl, 0.1% (v:v) Tween 20, 10 mM MgCl2, 5 mM EDTA, 2 mM DTT] and bound complexes were eluted by boiling in Laemmli's sample buffer. When GST-Gαi3 was used in the assay, both binding buffer and washing buffer were supplemented with 30 μM GDP and bound proteins were eluted by incubating at 37° C.

[4] = biological target: T1, GST-tagged domains of IRS1; assay: Pulldown of recombinant His-GIV-CT with GST-tagged IRS1 domains; format: binding; details: recombinant proteins
Method: as §3

Row | Molecule | induction of IR (glucose-uptake response to insulin) ([1]; L6-GIV-SA cells (S1689A)) | induction of IR (glucose-uptake response to insulin) ([1]; L6-GIV-WT cells) | phosphorylation of GIV at Y1764 ([2]; L6 cells treated with PA) | phosphorylation of GIV at S1689 ([2]; L6 cells treated with PA (0.5 mM, 16 h)) | GIV's ability to bind Gi (Gαi3) [3] | binding to IRS1 domains [4]
1 | CCCCCCCCCCCCCCCC(=O)[O-].[Na+] [PA, Sodium Palmitate, reference compound] | resistant to PA | induced IR | suppressed | enhanced | reduced; also recorded: loss of binding | –
2 | His-GIV-CT: Recombinant His-tagged GIV-CT (aa 1660-1870) expressed from pET28b (protein, left off: small tags and cut ends, Recombinant His-tagged GIV-CT (aa 1660-1870) expressed from pET28b) ETLESRHHKIKTGSPGSEVVTLQQFLEESNKLTSVQIKSSSQENLLDEVMKSLSVSSDFLGKDKPVSCGLARSVSGKTPGDFYDRRTTKPEFLRPGPRKTEDTYFISSAGKPTPGTQGKIKLVKESSLSRQSKDSNPYATLPRASSVISTAEGTTRRTSIHDFLTKDSRLPISVDSPPAAADSNTTAASNVDKVQESRNSKSRSREQQSS | – | – | – | – | – | specifically bound the N-terminus of IRS1
